Read-outs that look alike come from different tables or passages of the source.
Columns and labels:
neuroblastoma cells = settings: arrest of cell division between G1 and mitosis; cited from earlier work
[1] = system: AG and GBM patients treated at recurrence; settings: 3.6 g/m^2 every 8 hours, N = 89, cited from earlier work
[2] = system: biopsied skin actinic keratosis; settings: topical, compared to placebo-treated skin, cited from earlier work
[3] = system: newly diagnosed AG and GBM patients; experiment: Phase 3 study of eflornithine with PCV versus PCV, adverse events; format: in vivo, human; settings: Eflornithine-PCV minus PCV, N = 500
Excerpt: As used herein, the term “toxicity” refers to any one of the side effects referred to above in Table 2, regardless of the severity of the side effect or its possible effect on the course of treatment.

Big Blue Rat-2 cells = settings: 9.1 at 0 mM, cited from earlier work
low-grade gliomas = settings: adjuvant chemotherapy; recurrent tumors; driver mutations in RB and AKT-mTOR pathways; cited from earlier work

Compound: eflornithine
- effect on intracellular proteins p21 and p27kip-1 (neuroblastoma cells): increase
- Ototoxicity, patients (%) ([1]; Toxicity Grade 1): (7.9) %
- Ototoxicity, patients n ([1]; Toxicity Grade 1): 7
- Ototoxicity, patients (%) ([1]; Toxicity Grade 2): (5.6) %
- Ototoxicity, patients n ([1]; Toxicity Grade 2): 5
- Ototoxicity, patients (%) ([1]; Toxicity Grade 3): (6.7) %
- Ototoxicity, patients n ([1]; Toxicity Grade 3): 6
- reduced the percentage of p53-positive cells ([2]; P=0.04): 22%
- reduction of the frequency of p53 mutations [2]: not the frequency of p53 mutations
- Anemia, Excess AEs due to Eflornithine ([3]; Toxicity Grade 1): 12.5%
- Anorexia, Excess AEs due to Eflornithine ([3]; Toxicity Grade 1): −1.5%
- Constipation, Excess AEs due to Eflornithine ([3]; Toxicity Grade 1): −1.9%
- Diarrhea, Excess AEs due to Eflornithine ([3]; Toxicity Grade 1): 25.4%
- Fatigue, Excess AEs due to Eflornithine ([3]; Toxicity Grade 1): 4.7%
- Granulocytopenia, Excess AEs due to Eflornithine ([3]; Toxicity Grade 1): 2.4%
- Headache, Excess AEs due to Eflornithine ([3]; Toxicity Grade 1): −1.9%
- Hearing loss, Excess AEs due to Eflornithine ([3]; Toxicity Grade 1): 0.0%
- Leukopenia, Excess AEs due to Eflornithine ([3]; Toxicity Grade 1): −3.4%
- Nausea only, Excess AEs due to Eflornithine ([3]; Toxicity Grade 1): 1.0%
- Pruritis and itching, Excess AEs due to Eflornithine ([3]; Toxicity Grade 1): −0.7%
- Thrombocytopenia, Excess AEs due to Eflornithine ([3]; Toxicity Grade 1): 4.6%
- Vomiting, Excess AEs due to Eflornithine ([3]; Toxicity Grade 1): 5.2%
- Anemia, Excess AEs due to Eflornithine ([3]; Toxicity Grade 2): 15.6%
- Anorexia, Excess AEs due to Eflornithine ([3]; Toxicity Grade 2): 2.5%
- Constipation, Excess AEs due to Eflornithine ([3]; Toxicity Grade 2): −0.7%
- Diarrhea, Excess AEs due to Eflornithine ([3]; Toxicity Grade 2): 17.4%
- Fatigue, Excess AEs due to Eflornithine ([3]; Toxicity Grade 2): 6.9%
- Granulocytopenia, Excess AEs due to Eflornithine ([3]; Toxicity Grade 2): 1.1%
- Headache, Excess AEs due to Eflornithine ([3]; Toxicity Grade 2): 1.3%
- Hearing loss, Excess AEs due to Eflornithine ([3]; Toxicity Grade 2): 1.2%
- Leukopenia, Excess AEs due to Eflornithine ([3]; Toxicity Grade 2): 1.2%
- Nausea only, Excess AEs due to Eflornithine ([3]; Toxicity Grade 2): 0.0%
- Pruritis and itching, Excess AEs due to Eflornithine ([3]; Toxicity Grade 2): 0.9%
- Thrombocytopenia, Excess AEs due to Eflornithine ([3]; Toxicity Grade 2): 10.5%
- Vomiting, Excess AEs due to Eflornithine ([3]; Toxicity Grade 2): 1.1%
- Anemia, Excess AEs due to Eflornithine ([3]; Toxicity Grade 3): 4.5%
- Anorexia, Excess AEs due to Eflornithine ([3]; Toxicity Grade 3): 1.2%
- Constipation, Excess AEs due to Eflornithine ([3]; Toxicity Grade 3): 0.4%
- Diarrhea, Excess AEs due to Eflornithine ([3]; Toxicity Grade 3): 6.0%
- Fatigue, Excess AEs due to Eflornithine ([3]; Toxicity Grade 3): 0.8%
- Granulocytopenia, Excess AEs due to Eflornithine ([3]; Toxicity Grade 3): −3.9%
- Headache, Excess AEs due to Eflornithine ([3]; Toxicity Grade 3): 0.4%
- Hearing loss, Excess AEs due to Eflornithine ([3]; Toxicity Grade 3): 0.8%
- Leukopenia, Excess AEs due to Eflornithine ([3]; Toxicity Grade 3): 0.0%
- Nausea only, Excess AEs due to Eflornithine ([3]; Toxicity Grade 3): 0.9%
- Pruritis and itching, Excess AEs due to Eflornithine ([3]; Toxicity Grade 3): −0.3%
- Thrombocytopenia, Excess AEs due to Eflornithine ([3]; Toxicity Grade 3): 3.5%
- Vomiting, Excess AEs due to Eflornithine ([3]; Toxicity Grade 3): 4.5%
- Anemia, Excess AEs due to Eflornithine ([3]; Toxicity Grade 4): 2.0%
- Anorexia, Excess AEs due to Eflornithine ([3]; Toxicity Grade 4): 0.0%
- Constipation, Excess AEs due to Eflornithine ([3]; Toxicity Grade 4): 0.4%
- Diarrhea, Excess AEs due to Eflornithine ([3]; Toxicity Grade 4): 0.8%
- Fatigue, Excess AEs due to Eflornithine ([3]; Toxicity Grade 4): 0.0%
- Granulocytopenia, Excess AEs due to Eflornithine ([3]; Toxicity Grade 4): 1.8%
- Headache, Excess AEs due to Eflornithine ([3]; Toxicity Grade 4): 0.0%
- Hearing loss, Excess AEs due to Eflornithine ([3]; Toxicity Grade 4): 0.0%
- Leukopenia, Excess AEs due to Eflornithine ([3]; Toxicity Grade 4): 0.9%
- Nausea only, Excess AEs due to Eflornithine ([3]; Toxicity Grade 4): 0.0%
- Pruritis and itching, Excess AEs due to Eflornithine ([3]; Toxicity Grade 4): 0.0%
- Thrombocytopenia, Excess AEs due to Eflornithine ([3]; Toxicity Grade 4): 2.1%
- Vomiting, Excess AEs due to Eflornithine ([3]; Toxicity Grade 4): −1.2%

Compound: Cn1nnc2c(C(N)=O)ncn2c1=O [TMZ, temozolomide]
- lacI mutation frequency (Big Blue Rat-2 cells; 0.5 mM TMZ): 48.9
- lacI mutation frequency (Big Blue Rat-2 cells; 1 mM TMZ): 89.7
- patients whose tumors followed an alternative evolutionary path to high-grade glioma with hypermutation (low-grade gliomas): 6 of 10

Source: patent US20190091187A1 (Orbus Therapeutics, Inc., priority 2016, published 2019)
